The source of these data is US20230111310A1, “CARBOXYLIC ACID DERIVATIVE-SUBSTITUTED IMINO ARYL COMPOUND, PREPARATION METHOD THEREFOR, HERBICIDAL COMPOSITION AND USE THEREOF” (Qingdao Kingagroot Chemical Compound Co., Ltd., priority 2020, published 2023).

Common to all, as to experiment: Weeding effect in post-emergence stage
Type in all cases: in vivo
What all share (conditions): Dose 15 g/ha; level of fresh weight growth control rate

One experiment concerns Setaria viridis. The procedure, abridged:
(§1)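 Weeds were treated post-emergence at 2-3 leaves with compound doses from 7.5 up to 500 g/ha, formulated in acetone–Tween 80 with methyl oleate synergist. Efficacy was assessed as growth control after 3 weeks.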

In the next experiment the test system is Alopecurus japonicus. The procedure, abridged: as §1
The next experiment concerns Abutilon theophrasti. The procedure, abridged: as §1
The test system of a further experiment is Eleusine indica. The method in brief:
as §1

Another experiment relates to Digitaria sanguinalis. The method in brief: as §1
For another experiment, the system named is Echinochloa crusgalli. The procedure, abridged:
as §1

In the case of `CCOC(=O)[C@@H](C)O/N=C/c1cc(-n2c(=O)n(C)c(=S)n(C)c2=O)c(F)cc1C(F)(F)F` [86(R)], in the experiment on Setaria viridis, the “Weeding effect in post-emergence stage, Setaria viridis” value (shortened to “Weeding effect … Setaria viridis”) is 4 (Level 4: growth control rate is greater than or equal to 60% and less than 85%). In addition, the “Weeding effect in post-emergence stage, Alopecurus japonicus” value (“Weeding effect … Alopecurus japonicus” below) in the experiment with Alopecurus japonicus is 3 (Level 3: growth control rate is greater than or equal to 40% and less than 60%). The “Weeding effect in post-emergence stage, Abutilon theophrasti” value (shortened to “Weeding effect … Abutilon theophrasti”) with Abutilon theophrasti is reported as 5 (Level 5: growth control rate is above 85%). For the same compound, the “Weeding effect in post-emergence stage, Eleusine indica” value (“Weeding effect … Eleusine indica” for short) in the experiment on Eleusine indica was 5 (Level 5: growth control rate is above 85%). The “Weeding effect in post-emergence stage, Digitaria sanguinalis” value (shortened to “Weeding effect … Digitaria sanguinalis”) in the experiment on Digitaria sanguinalis was 3 (Level 3: growth control rate is greater than or equal to 40% and less than 60%). Moreover, in the experiment with Echinochloa crusgalli, the “Weeding effect in post-emergence stage, Echinochloa crusgalli” value (from here on “Weeding effect … Echinochloa crusgalli”) was 4 (Level 4: growth control rate is greater than or equal to 60% and less than 85%).
`COC(=O)[C@@H](C)O/N=C/c1cc(-n2c(=O)n(C)c(=S)n(C)c2=O)c(F)cc1C#N` [87(R)]: in the experiment on Setaria viridis, the “Weeding effect … Setaria viridis” value is listed as 5 (Level 5: growth control rate is above 85%). For the same compound, in the experiment with Alopecurus japonicus, the “Weeding effect … Alopecurus japonicus” value was 5 (Level 5: growth control rate is above 85%). Further, the “Weeding effect … Abutilon theophrasti” value with Abutilon theophrasti is given as 5 (Level 5: growth control rate is above 85%). For the same compound, the “Weeding effect … Eleusine indica” value in the experiment with Eleusine indica was 5 (Level 5: growth control rate is above 85%). Also, the “Weeding effect … Digitaria sanguinalis” value in the experiment on Digitaria sanguinalis was 5 (Level 5: growth control rate is above 85%). For the same compound, the “Weeding effect … Echinochloa crusgalli” value with Echinochloa crusgalli is on record as 5 (Level 5: growth control rate is above 85%).
`CCOC(=O)[C@@H](C)O/N=C/c1cc(-n2c(=O)n(C)c(=S)n(C)c2=O)c(F)cc1C#N` [88(R)]: the “Weeding effect … Setaria viridis” value in the experiment on Setaria viridis is 5 (Level 5: growth control rate is above 85%). In addition, in the experiment on Alopecurus japonicus, the “Weeding effect … Alopecurus japonicus” value is recorded as 5 (Level 5: growth control rate is above 85%). Besides, the “Weeding effect … Abutilon theophrasti” value with Abutilon theophrasti is 5 (Level 5: growth control rate is above 85%). Further, in the experiment on Eleusine indica, the “Weeding effect … Eleusine indica” value is given as 5 (Level 5: growth control rate is above 85%). For the same compound, in the experiment on Digitaria sanguinalis, the “Weeding effect … Digitaria sanguinalis” value is 5 (Level 5: growth control rate is above 85%). Besides, the “Weeding effect … Echinochloa crusgalli” value with Echinochloa crusgalli is given as 5 (Level 5: growth control rate is above 85%).
Regarding `COC(=O)[C@@H](C)O/N=C/c1cc(-n2c(=O)n(C)c(=S)n(C)c2=S)c(F)cc1Cl` [124(R)], in the experiment with Setaria viridis, the “Weeding effect … Setaria viridis” value is listed as 5 (Level 5: growth control rate is above 85%). For the same compound, the “Weeding effect … Alopecurus japonicus” value with Alopecurus japonicus was 5 (Level 5: growth control rate is above 85%). The “Weeding effect … Abutilon theophrasti” value in the experiment with Abutilon theophrasti is 5 (Level 5: growth control rate is above 85%). Further, the “Weeding effect … Eleusine indica” value with Eleusine indica is 5 (Level 5: growth control rate is above 85%). Besides, in the experiment on Digitaria sanguinalis, the “Weeding effect … Digitaria sanguinalis” value was 5 (Level 5: growth control rate is above 85%). In addition, the “Weeding effect … Echinochloa crusgalli” value in the experiment on Echinochloa crusgalli is listed as 5 (Level 5: growth control rate is above 85%).
As for `CCOC(=O)[C@@H](C)O/N=C/c1cc(-n2c(=O)n(C)c(=S)n(C)c2=S)c(F)cc1Br` [161(R)], the “Weeding effect … Setaria viridis” value in the experiment on Setaria viridis is listed as 5 (Level 5: growth control rate is above 85%). Besides, the “Weeding effect … Alopecurus japonicus” value with Alopecurus japonicus was 4 (Level 4: growth control rate is greater than or equal to 60% and less than 85%). The “Weeding effect … Abutilon theophrasti” value in the experiment on Abutilon theophrasti is on record as 5 (Level 5: growth control rate is above 85%). The “Weeding effect … Eleusine indica” value in the experiment with Eleusine indica is recorded as 5 (Level 5: growth control rate is above 85%). Moreover, the “Weeding effect … Digitaria sanguinalis” value in the experiment on Digitaria sanguinalis was 4 (Level 4: growth control rate is greater than or equal to 60% and less than 85%). Further, the “Weeding effect … Echinochloa crusgalli” value with Echinochloa crusgalli was 5 (Level 5: growth control rate is above 85%).
Consider `COC(=O)[C@@H](C)O/N=C/c1cc(-n2c(=O)n(C)c(=O)n(C)c2=O)c(F)cc1Cl` [164(R)], for which the “Weeding effect … Setaria viridis” value in the experiment with Setaria viridis is recorded as 5 (Level 5: growth control rate is above 85%). Also, the “Weeding effect … Alopecurus japonicus” value with Alopecurus japonicus is 5 (Level 5: growth control rate is above 85%). For the same compound, the “Weeding effect … Abutilon theophrasti” value in the experiment on Abutilon theophrasti was 5 (Level 5: growth control rate is above 85%). For the same compound, the “Weeding effect … Eleusine indica” value with Eleusine indica is on record as 5 (Level 5: growth control rate is above 85%). In addition, in the experiment on Digitaria sanguinalis, the “Weeding effect … Digitaria sanguinalis” value is recorded as 5 (Level 5: growth control rate is above 85%). Moreover, the “Weeding effect … Echinochloa crusgalli” value in the experiment on Echinochloa crusgalli is 5 (Level 5: growth control rate is above 85%).
Turning to `CCSC(=O)[C@@H](C)O/N=C/c1cc(-n2c(=O)n(C)c(=S)n(C)c2=O)c(F)cc1Cl` [168(R)], in the experiment on Setaria viridis, the “Weeding effect … Setaria viridis” value is reported as 5 (Level 5: growth control rate is above 85%). Besides, the “Weeding effect … Alopecurus japonicus” value with Alopecurus japonicus is 5 (Level 5: growth control rate is above 85%). In addition, in the experiment with Abutilon theophrasti, the “Weeding effect … Abutilon theophrasti” value is on record as 5 (Level 5: growth control rate is above 85%). Also, the “Weeding effect … Eleusine indica” value in the experiment on Eleusine indica was 5 (Level 5: growth control rate is above 85%). Also, in the experiment on Digitaria sanguinalis, the “Weeding effect … Digitaria sanguinalis” value is 5 (Level 5: growth control rate is above 85%). The “Weeding effect … Echinochloa crusgalli” value in the experiment on Echinochloa crusgalli is 5 (Level 5: growth control rate is above 85%).
Regarding `COC(=O)CCNC(=O)[C@@H](C)O/N=C/c1cc(-n2c(=O)n(C)c(=S)n(C)c2=O)c(F)cc1Cl` [183(R)], the “Weeding effect … Setaria viridis” value with Setaria viridis is 5 (Level 5: growth control rate is above 85%). For the same compound, in the experiment on Alopecurus japonicus, the “Weeding effect … Alopecurus japonicus” value was 5 (Level 5: growth control rate is above 85%). For the same compound, in the experiment on Abutilon theophrasti, the “Weeding effect … Abutilon theophrasti” value was 5 (Level 5: growth control rate is above 85%). Further, the “Weeding effect … Eleusine indica” value in the experiment on Eleusine indica is recorded as 5 (Level 5: growth control rate is above 85%). For the same compound, in the experiment on Digitaria sanguinalis, the “Weeding effect … Digitaria sanguinalis” value was 5 (Level 5: growth control rate is above 85%). Also, in the experiment on Echinochloa crusgalli, the “Weeding effect … Echinochloa crusgalli” value was 5 (Level 5: growth control rate is above 85%).
With `C[C@@H](O/N=C/c1cc(-n2c(=O)cc(C(F)(F)F)n(C)c2=O)c(F)cc1Cl)C(=O)O` [193(R)], the “Weeding effect … Setaria viridis” value in the experiment on Setaria viridis was 5 (Level 5: growth control rate is above 85%). For the same compound, in the experiment with Alopecurus japonicus, the “Weeding effect … Alopecurus japonicus” value is on record as 5 (Level 5: growth control rate is above 85%). Moreover, in the experiment on Abutilon theophrasti, the “Weeding effect … Abutilon theophrasti” value was 5 (Level 5: growth control rate is above 85%). In addition, the “Weeding effect … Eleusine indica” value with Eleusine indica was 5 (Level 5: growth control rate is above 85%). For the same compound, the “Weeding effect … Digitaria sanguinalis” value in the experiment with Digitaria sanguinalis is reported as 5 (Level 5: growth control rate is above 85%). The “Weeding effect … Echinochloa crusgalli” value in the experiment on Echinochloa crusgalli was 5 (Level 5: growth control rate is above 85%).
On to `CCCCOC(=O)[C@@H](C)O/N=C/c1cc(-n2c(=O)cc(C(F)(F)F)n(C)c2=O)c(F)cc1Cl` [200(R)], for which the “Weeding effect … Setaria viridis” value with Setaria viridis is reported as 5 (Level 5: growth control rate is above 85%). In addition, the “Weeding effect … Alopecurus japonicus” value in the experiment on Alopecurus japonicus is 5 (Level 5: growth control rate is above 85%). Besides, the “Weeding effect … Abutilon theophrasti” value in the experiment with Abutilon theophrasti was 5 (Level 5: growth control rate is above 85%). Further, the “Weeding effect … Eleusine indica” value in the experiment with Eleusine indica was 5 (Level 5: growth control rate is above 85%). In the experiment with Digitaria sanguinalis, the “Weeding effect … Digitaria sanguinalis” value is reported as 5 (Level 5: growth control rate is above 85%). The “Weeding effect … Echinochloa crusgalli” value in the experiment on Echinochloa crusgalli is 5 (Level 5: growth control rate is above 85%).
